Reference: US6572603B1, “Vitamin d solution holder and containers for transfusions” (Otsuka Pharmaceutical Factory, Inc., priority 1998, dated 2003)

Assays:
Assay type in all cases: physicochemical
[1] = Vitamin content of transfusion products of Examples 1 and 2 after four-month storage
Protocol: In a holder produced from a polyethylene film having a thickness of 30 μm, solution (C) (4 ml) was charged and the inlet was melt-sealed, to thereby obtain a holder for the solution containing vitamin D3. The surface area of a solution-holding portion of the holder was 16 cm^2 and the volume of polyethylene constituting the solution-holding portion was 0.048 cm^3.
In a polyethylene-made two-compartment container (see FIG. 2), the above-described holder for vitamin D3 solution had been previously attached to one of the compartments. Solution (A) (600 ml) and solution (B) (300 ml) were charged into two compartments separately in an atmosphere replaced with nitrogen, and the container was sealed. Subsequently, the container was subjected to autoclaving through a customary method, to thereby obtain a transfusion product. The transfusion product was wrapped in a light-shielding nylon multi-layer bag together with a deoxidizing agent (trade name: Ageless, product of Mitsubishi Gas Chem. Co., Inc.).
In the same manner as in Example 1, solution (A), solution (B), and solution (C), having the compositions shown in Table 2, were prepared, and these solutions were charged into a holder and two compartments of a transfusion fluid container as described in Example 1. Subsequently, the container was subjected to autoclaving, to thereby obtain a transfusion product. […]

[2] = Vitamin contents in transfusion fluid containers of Examples 4 and 5 after autoclaving and 40° C. four-month storage, bioassay (vitamin B12, biotin) or HPLC (other vitamins)
Protocol: In a holder produced from a three-layered film (the thickness of each layer: 10 μm) in which the outer and the inner layers are made of polyethylene and the intermediate layer is made of ethylene.tetracyclododecene copolymer (trade name: Apel, product of Mitsui Chemicals, Inc.), solution (C) (4 ml) was charged and the inlet was melt-sealed. In a two-compartment container, the prepared holder was attached to one of the compartments. […] The above-described transfusion fluid containers in Examples 4 and 5 were allowed to stand at 40° C. for four months after autoclaving. Thereafter, the contents of vitamins in the containers were measured through a bioassay according to Pharmacopoeia of Japan (for vitamin B12 and biotin) or through HPLC (for other vitamins). The content of each vitamin is represented by a percentage (%) of the initially incorporated amount.

[3] = Vitamin content of solution (C) in polyolefin holders after autoclaving and storage at 40° C. for four months, measured through HPLC (Example 3)
Protocol: Solution (C) (4 ml) prepared in Example 1 was charged into each of holders made of the materials shown in Table 3, to thereby obtain a holder which contains a solution of vitamin D3. Each of these holders containing a solution of vitamin D3 was subjected to autoclaving and wrapped in a nylon multi-layered-film bag together with a deoxidizing agent (trade name: Ageless, product of Mitsubishi Gas Chem. Co., Inc.). The thus-wrapped holders were allowed to stand at 40° C. for four months. Thereafter, the content of each vitamin in each holder was measured through HPLC. The content of each vitamin is represented by a percentage (%) of the initially incorporated amount.

## C=C1CC[C@H](O)C/C1=C/C=C1\CCC[C@]2(C)[C@@H]([C@H](C)CCCC(C)C)CC[C@@H]12 [Vitamin D3, cholecalciferol]
[1]
  Vitamin content after storage (acceptable range ≧80%): ≥ 80%
[2]; Example 4 transfusion fluid container, 40° C., 4 months
  Vitamin content, percentage (%) of the initially incorporated amount: 88.7%
[2]; Example 4 transfusion fluid container, immediately after sterilization
  Vitamin content, percentage (%) of the initially incorporated amount: 89.8%
[2]; Example 5 transfusion fluid container, 40° C., 4 months
  Vitamin content, percentage (%) of the initially incorporated amount: 89.6%
[2]; Example 5 transfusion fluid container, immediately after sterilization
  Vitamin content, percentage (%) of the initially incorporated amount: 90.1%
[3]; holder No. 1, polyethylene, 30 μm, resin 7.4 cm^3 per μmol vitamin D, 40° C., 4 months
  Vitamin content (%) of initially incorporated amount: 86.2%
[3]; holder No. 1, polyethylene, 30 μm, resin 7.4 cm^3 per μmol vitamin D, after sterilization
  Vitamin content (%) of initially incorporated amount: 95.4%
[3]; holder No. 2, polyethylene, 100 μm, resin 18.5 cm^3 per μmol vitamin D, 40° C., 4 months
  Vitamin content (%) of initially incorporated amount: 81.3%
[3]; holder No. 2, polyethylene, 100 μm, resin 18.5 cm^3 per μmol vitamin D, after sterilization
  Vitamin content (%) of initially incorporated amount: 94.6%
[3]; holder No. 3, polypropylene, 30 μm, resin 7.4 cm^3 per μmol vitamin D, 40° C., 4 months
  Vitamin content (%) of initially incorporated amount: 85.8%
[3]; holder No. 3, polypropylene, 30 μm, resin 7.4 cm^3 per μmol vitamin D, after sterilization
  Vitamin content (%) of initially incorporated amount: 96.2%
[3]; holder No. 4, polyethylene, 250 μm, resin 123.2 cm^3 per μmol vitamin D, 40° C., 4 months
  Vitamin content (%) of initially incorporated amount: 66.3%
[3]; holder No. 4, polyethylene, 250 μm, resin 123.2 cm^3 per μmol vitamin D, 40° C., 4 months, listed as vitamin D3
  Vitamin content (%) of initially incorporated amount: fell outside the acceptable range
[3]; holder No. 4, polyethylene, 250 μm, resin 123.2 cm^3 per μmol vitamin D, after sterilization
  Vitamin content (%) of initially incorporated amount: 89.8%
[3]; holder No. 5, polypropylene, 250 μm, resin 123.2 cm^3 per μmol vitamin D, 40° C., 4 months
  Vitamin content (%) of initially incorporated amount: 69.1%
[3]; holder No. 5, polypropylene, 250 μm, resin 123.2 cm^3 per μmol vitamin D, 40° C., 4 months, listed as vitamin D3
  Vitamin content (%) of initially incorporated amount: fell outside the acceptable range
[3]; holder No. 5, polypropylene, 250 μm, resin 123.2 cm^3 per μmol vitamin D, after sterilization
  Vitamin content (%) of initially incorporated amount: 87.5%
